The values that follow are results of earlier work, collected in patent US10720228B2, “Method and system for testing of active molecules using molecular simulation of skin membrane” (Tata Consultancy Services Limited, priority 2016, dated 2020).

For this series the following is noted: 323 K.

As for `O` [water], the “experimentally observed free energy of water solvation in hexadecane” value was 5.98 kcal/mol.
